Reference: patent publication US20140364368A1, “STIMULUS RESPONSIVE NANOCOMPLEXES AND METHODS OF USE THEREOF” (MASSACHUSETTS INSTITUTE OF TECHNOLOGY, priority 2013, published 2014)

How the values were obtained:
mice = assay: Tail bleeding time after tail transection; assay type: in vivo; settings: 200 U/kg intravenously
Description: To assess the effect of nanocomplex administration on bleeding tail transection on mice was performed five minutes after they were treated intravenously with nanocomplexes. Specifically, mice (n=5-7 per condition) were anesthetized with isofluorane gas and administered nanocomplexes (200 U/kg, n=5), heparin (200 U/kg, n=7), or PBS control (n=5). After 5 minutes, 2 mm of distal mouse tail was removed by scalpel. Bleeding time was determined by lightly dabbing the tail with kimwipe tissues (Kimtech) until bleeding fully ceased for at least 1 minute. All experimental protocols involving animals were approved by the MIT Committee on Animal Care.

[1] = system: normal human control plasma; assay: activated partial thromboplastin time (aPTT) clotting assay
Description: The effect of the nanocomplexes on a physiologic coagulation pathway was tested using a standard activated partial thromboplastin time (aPTT) clotting assay, which is also used to monitor heparin levels of patients. This assay measures the amount of time needed for a plasma sample to form a clot in vitro when the contact pathway of coagulation is triggered by addition of an exogenous aPTT reagent. For the assay, varying concentrations of nanocomplexes or free heparin were added to 50 μl of APTT reagent (Thermo Scientific) at 37° C. for 3 minutes. Subsequently, 50 μl of 25 mM CaCl2 (Sigma) pre-incubated at 37° C. were added to samples and clotting was monitored via absorbance at 605 nm with a SpectraMAX Plus spectrophotometer ([…]).

[2] = system: thrombin generation in human plasma; assay: real-time thrombin generation assay in human plasma
Description: To further analyze the anticoagulant mechanism of the nanocomplexes, we performed real-time thrombin generation assays in human plasma. For this assay, varying concentrations of nanocomplexes or free heparin were added to 20 μL of control normal human plasma (Thermo Scientific). Real time thrombin generation was measured using the Technothrombin TGA kit (Technoclone) using the RD reagent according to manufacturer instructions. The fluorescence was monitored using a TECAN Infinite M200 Pro and thrombin generation was calculated using the corresponding Excel evaluation software provided by Technoclone.

[3] = system: thromboplastin-induced model of pulmonary thromboembolism; assay: thromboplastin-induced model of pulmonary thromboembolism; assay type: in vivo; settings: mice
Description: To evaluate the ability of nanocomplexes to prevent thrombosis in vivo, a thromboplastin-induced model of pulmonary thromboembolism was utilized. […] For the pulmonary embolism assay, bovine fibrinogen (Sigma) was reacted with near-infrared fluorochromes (Vivotag-750-NHS, Perkin-Elmer) at a 2:1 fluorophore:protein molar ratio in PBS for 1 hour and purified by column centrifugation (100 kDa cutoff, Millipore) to remove unreacted fluorophores. Ampules of thromboplastin from rabbit brain (Sigma, #44213) were reconstituted with 2 mL of PBS each.
To ascertain the initial dosing ranges for the nanocomplexes, mice were dosed with thromboplastin and escalating doses of free heparin (40 U/kg, 100 U/kg and 200 U/kg heparin). Deposition of VT750-fibrin in the lungs of the mice was quantified using ex vivo infrared imaging. […] Accordingly, the dose of nanocomplexes corresponding to heparin doses of 200 U/kg was chosen for subsequent experiments.
Mice (n=5 per condition) were anesthetized with isofluorane gas and co-administered nanocomplexes (200 U/kg), free heparin (200 U/kg), or PBS control and 1 nmol of VT750-fibrinogen via tail vein injection. After 5 minutes, mice were injected with thromboplastin (2 uL/g). After 30 minutes, mice were euthanized with CO2 and the lungs were harvested and imaged on the LI-COR Odyssey Infrared Imaging System. Fibrin deposition was then quantified using ImageJ software. For histologic analysis, paraffin-embedded sections of lungs were prepared (Koch Institute Histology Core). Lungs were first fixed by incubating in 4% paraformaldehyde overnight. Hematoxylin and eosin […] staining of lung sections was used to visualize clots in the lungs.

heparin [free heparin]
increase of mean bleeding time over PBS control (mice): greater than 280%
mean bleeding time (mice; tail transection after 5 minutes): ~9.2 min
aPTT clotting time ([1]; 0.4 U/mL): ~44 s
aPTT clotting time relative to control ([1]; 0.4 U/mL): ~1.5 × of control
aPTT clotting time ([1]; 0.8 U/mL): ~44 s
aPTT clotting time relative to control ([1]; 0.8 U/mL): ~1.5 fold over control
aPTT clotting time ([1]; 2 U/mL): ~136 s
aPTT clotting time relative to control ([1]; 2 U/mL): ~5 fold over control
aPTT clotting time relative to control ([1]; 2 U/mL, listed as heparin): ~5 x of control
reduction of ETP ([2]; 1.6 U/mL): ~80%
lag time (time to initial thrombin formation) ([2]; increasing concentrations): prolonged in a dose-dependent manner
VT750-fibrin deposition in the lungs ([3]; 40 U/kg, with thromboplastin): did not significantly reduce
VT750-fibrin deposition in the lungs ([3]; 100 U/kg, with thromboplastin): did not significantly reduce
histological analysis of lung microvessels (hematoxylin and eosin) ([3]; 200 U/kg, thromboplastin 2 uL/g): largely patent
reduction of VT750-fibrin deposition in the lungs ([3]; 200 U/kg, with thromboplastin): more than two-fold
